Measurements reported in patent US9546164B2 (GENENTECH, INC., priority 2013, dated 2017).
Where a name gives a salt, the structure may show the parent alone.

These compounds were tested against hNav1.7 (Homo sapiens (Human), UniProt Q15858) (assay: Tritiated sulfonamide competitive binding to membranes from cells expressing hNav1.7 and the β1 subunit). Details: read-out: Ligand Binding Assay; 100 pM [3H]compound, membranes with hNav1.7 and β1 subunit, 18 h, room temperature.
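Also: Filter-bound radioactivity counted by liquid scintillation, nonspecific binding defined with excess unlabelled ligand, IC50 fitted to percent inhibition of specific binding.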

Sequence of hNav1.7 (Q15858 other isoform, or with tags, fused parts or gaps): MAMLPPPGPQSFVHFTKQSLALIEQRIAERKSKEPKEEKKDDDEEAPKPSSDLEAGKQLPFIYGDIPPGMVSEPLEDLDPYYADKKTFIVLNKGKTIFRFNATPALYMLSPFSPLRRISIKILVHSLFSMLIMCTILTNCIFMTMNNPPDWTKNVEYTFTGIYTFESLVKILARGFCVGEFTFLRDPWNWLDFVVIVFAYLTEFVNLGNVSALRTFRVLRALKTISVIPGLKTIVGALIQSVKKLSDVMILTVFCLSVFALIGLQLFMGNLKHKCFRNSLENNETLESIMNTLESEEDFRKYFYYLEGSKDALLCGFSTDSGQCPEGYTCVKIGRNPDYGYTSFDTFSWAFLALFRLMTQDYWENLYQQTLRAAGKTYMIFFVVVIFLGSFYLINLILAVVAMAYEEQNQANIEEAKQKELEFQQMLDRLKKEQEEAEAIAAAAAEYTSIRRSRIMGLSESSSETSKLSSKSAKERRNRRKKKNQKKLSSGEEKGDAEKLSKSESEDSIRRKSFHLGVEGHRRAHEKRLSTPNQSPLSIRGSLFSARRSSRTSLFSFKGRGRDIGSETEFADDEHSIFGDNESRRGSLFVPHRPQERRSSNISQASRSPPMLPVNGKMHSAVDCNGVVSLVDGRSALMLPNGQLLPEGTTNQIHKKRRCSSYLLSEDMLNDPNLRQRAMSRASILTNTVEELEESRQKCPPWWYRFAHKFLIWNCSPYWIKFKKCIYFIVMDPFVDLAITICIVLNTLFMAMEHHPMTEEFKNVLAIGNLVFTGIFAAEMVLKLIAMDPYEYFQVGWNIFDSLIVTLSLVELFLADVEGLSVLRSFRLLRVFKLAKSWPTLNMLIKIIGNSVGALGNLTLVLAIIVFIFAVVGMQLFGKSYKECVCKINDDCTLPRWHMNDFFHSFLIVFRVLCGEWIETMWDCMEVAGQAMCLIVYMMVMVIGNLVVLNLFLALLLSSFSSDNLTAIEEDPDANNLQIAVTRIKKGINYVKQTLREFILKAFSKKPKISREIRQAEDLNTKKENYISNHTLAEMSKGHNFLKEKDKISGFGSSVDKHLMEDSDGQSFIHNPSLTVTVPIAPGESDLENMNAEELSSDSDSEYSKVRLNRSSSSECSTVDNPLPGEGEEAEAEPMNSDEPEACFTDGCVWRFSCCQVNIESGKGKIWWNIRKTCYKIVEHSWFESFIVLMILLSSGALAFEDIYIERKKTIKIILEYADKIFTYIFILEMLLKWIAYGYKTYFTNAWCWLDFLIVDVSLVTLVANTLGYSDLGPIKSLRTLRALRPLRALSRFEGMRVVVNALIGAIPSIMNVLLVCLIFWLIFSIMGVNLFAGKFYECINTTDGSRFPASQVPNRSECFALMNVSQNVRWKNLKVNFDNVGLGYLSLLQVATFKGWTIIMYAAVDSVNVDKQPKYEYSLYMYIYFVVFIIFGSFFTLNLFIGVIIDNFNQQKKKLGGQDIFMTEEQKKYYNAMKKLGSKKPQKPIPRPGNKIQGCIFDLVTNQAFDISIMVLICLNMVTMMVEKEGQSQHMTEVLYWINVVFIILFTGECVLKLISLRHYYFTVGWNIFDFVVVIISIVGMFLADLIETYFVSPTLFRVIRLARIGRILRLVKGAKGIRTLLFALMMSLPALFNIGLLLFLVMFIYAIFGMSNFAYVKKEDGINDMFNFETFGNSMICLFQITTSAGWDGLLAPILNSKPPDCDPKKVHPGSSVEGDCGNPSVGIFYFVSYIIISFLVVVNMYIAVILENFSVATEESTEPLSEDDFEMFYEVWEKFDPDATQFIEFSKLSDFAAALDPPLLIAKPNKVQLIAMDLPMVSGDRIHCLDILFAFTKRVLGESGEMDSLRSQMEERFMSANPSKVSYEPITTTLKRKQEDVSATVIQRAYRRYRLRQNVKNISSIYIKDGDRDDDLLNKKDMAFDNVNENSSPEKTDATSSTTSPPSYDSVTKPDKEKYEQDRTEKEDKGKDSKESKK
Sequence of hNav1.7 (Q07699 19-218 partner): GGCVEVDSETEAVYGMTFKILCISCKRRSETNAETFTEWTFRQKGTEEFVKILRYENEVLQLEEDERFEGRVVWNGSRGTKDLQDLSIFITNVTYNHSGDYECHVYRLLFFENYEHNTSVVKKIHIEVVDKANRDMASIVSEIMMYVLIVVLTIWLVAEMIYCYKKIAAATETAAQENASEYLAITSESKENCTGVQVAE

| SMILES | IC50 |
| --- | --- |
| CS(=O)(=O)NC(=O)c1cc(C2CC2)c(OCC2CCN(Cc3ccc(Br)cc3Cl)CC2)cc1F [Example 413, 4-((1-(4-bromo-2-chlorobenzyl)piperidin-4-yl)methoxy-5-cyclopropyl-2-fluoro-N-(methylsulfonyl)benzamide, trifluoroacetic acid salt] | 6 nM |
| CS(=O)(=O)NC(=O)c1cc(C2CC2)c(OCC2CCN(Cc3ccc(C4CC4)cc3Cl)CC2)cc1F [Example 415, 4-((1-(2-chloro-4-cyclopropylbenzyl)piperidin-4-yl)methoxy)-5-cyclopropyl-2-fluoro-N-(methylsulfonyl)benzamide, trifluoroacetic acid salt] | 6.1 nM |
| O=C(NS(=O)(=O)C1CC1)c1cc(C2CC2)c(OCC2CCN(Cc3ccc(C4CC4)cc3Cl)CC2)cc1F [Example 416, 4-((1-(2-chloro-4-cyclopropylbenzyl)piperidin-4-yl)methoxy)-5-cyclopropyl-N-(cyclopropylsulfonyl)-2-fluorobenzamide, trifluoroacetic acid salt] | 5.3 nM |
| O=C(NS(=O)(=O)N1CCC1)c1cc(C2CC2)c(OCC2CCN(Cc3ccc(C4CC4)cc3Cl)CC2)cc1F [Example 417, N-(azetidin-1-ylsulfonyl)-4-((1-(2-chloro-4-cyclopropylbenzyl)piperidin-4-yl)methoxy)-5-cyclopropyl-2-fluorobenzamide, trifluoroacetic acid salt] | 5.7 nM |
| CS(=O)(=O)NC(=O)c1cc(C2CC2)c(O[C@@H]2CCCN(Cc3cc(Cl)ccc3O)C2)cc1F [Example 427, (R)-4-((1-(5-chloro-2-hydroxybenzyl)piperidin-3-yl)oxy)-5-cyclopropyl-2-fluoro-N-(methylsulfonyl)benzamide, trifluoroacetic acid salt] | 19 nM |
| CCOc1ccc(CN2CCC[C@@H](Oc3cc(F)c(C(=O)NS(C)(=O)=O)cc3C3CC3)C2)c(OCC)c1 [Example 428, (R)-5-cyclopropyl-4-((1-(2,4-diethoxybenzyl)piperidin-3-yl)oxy)-2-fluoro-N-(methylsulfonyl)benzamide, trifluoroacetic acid salt] | 23.4 nM |
| CS(=O)(=O)NC(=O)c1cc(C2CC2)c(O[C@@H]2CCCN(Cc3ccc4c(c3)OCCO4)C2)cc1F [Example 429, (R)-5-cyclopropyl-4-((1-((2,3-dihydrobenzo[b][1,4]dioxin-6-yl)methyl)piperidin-3-yl)oxy)-2-fluoro-N-(methylsulfonyl)benzamide, trifluoroacetic acid salt] | 51.9 nM |
| COc1ccc(CN2CCC[C@@H](Oc3cc(F)c(C(=O)NS(C)(=O)=O)cc3C3CC3)C2)cc1OC [Example 430, (R)-5-cyclopropyl-4-((1-(3,4-dimethoxybenzyl)piperidin-3-yl)oxy)-2-fluoro-N-(methylsulfonyl)benzamide, trifluoroacetic acid salt] | 533 nM |
| CS(=O)(=O)NC(=O)c1cc(C2CC2)c(O[C@@H]2CCCN(Cc3ccc(C(F)(F)F)c(Cl)c3)C2)cc1F [Example 433, (R)-4-((1-(3-chloro-4-(trifluoromethyl)benzyl)piperidin-3-yl)oxy)-5-cyclopropyl-2-fluoro-N-(methylsulfonyl)benzamide, trifluoroacetic acid salt] | 6.2 nM |
| Cc1ccc(CN2CCC[C@@H](Oc3cc(F)c(C(=O)NS(C)(=O)=O)cc3C3CC3)C2)cc1Cl [Example 435, (R)-4-((1-(3-Chloro-4-methylbenzyl)piperidin-3-yl)oxy)-5-cyclopropyl-2-fluoro-N-(methylsulfonyl)benzamide, trifluoroacetic acid salt] | 5.4 nM |
| Cc1cc(C)cc(CN2CCC[C@@H](Oc3cc(F)c(C(=O)NS(C)(=O)=O)cc3C3CC3)C2)c1 [Example 436, (R)-5-cyclopropyl-4-((1-(3,5-dimethylbenzyl)piperidin-3-yl)oxy)-2-fluoro-N-(methylsulfonyl)benzamide, trifluoroacetic acid salt] | 5.4 nM |
| CS(=O)(=O)NC(=O)c1cc(C2CC2)c(O[C@@H]2CCCN(Cc3cccc(OC(F)(F)F)c3)C2)cc1F [Example 437, (R)-5-cyclopropyl-2-fluoro-N-(methylsulfonyl)-4-((1-(3-(trifluoromethoxy)benzyl)piperidin-3-yl)oxy)benzamide, trifluoroacetic acid salt] | 7.3 nM |
| COc1cc(OC(F)(F)F)ccc1CN1CCC[C@@H](Oc2cc(F)c(C(=O)NS(C)(=O)=O)cc2C2CC2)C1 [Example 438, (R)-5-cyclopropyl-2-fluoro-4-((1-(2-methoxy-4-(trifluoromethoxy)benzyl)piperidin-3-yl)oxy)-N-(methylsulfonyl)benzamide, trifluoroacetic acid salt] | 9.5 nM |
| Cc1ccc(CN2CCC[C@@H](Oc3cc(F)c(C(=O)NS(C)(=O)=O)cc3C3CC3)C2)cc1C [Example 439, (R)-5-cyclopropyl-4-((1-(3,4-dimethylbenzyl)piperidin-3-yl)oxy)-2-fluoro-N-(methylsulfonyl)benzamide, trifluoracetic acid salt] | 11 nM |

Next, values leading:

| IC50 | SMILES |
| --- | --- |
| 0.8 nM | O=C(NS(=O)(=O)C1CC1)c1cc(C2CC2)c(OCC2CCN(C(c3ccccc3)c3cc(Cl)cc(Cl)c3)CC2)cc1F (centres unmarked) [Example 411, 5-cyclopropyl-N-(cyclopropylsulfonyl)-4-((1-((3,5-dichlorophenyl)(phenyl)methyl)piperidin-4-yl)methoxy)-2-fluorobenzamide, trifluoroacetic acid salt] |
| 1.5 nM | CS(=O)(=O)NC(=O)c1cc(C2CC2)c(OCC2CCN(C(c3ccccc3)c3cc(Cl)cc(Cl)c3)CC2)cc1F (centres unmarked) [Example 412, 5-cyclopropyl-4-((1-((3,5-dichlorophenyl)(phenyl)methyl)piperidin-4-yl)methoxy)-2-fluoro-N-(methylsulfonyl)benzamide, trifluoroacetic acid salt] |
| 3.8 nM | O=C(NS(=O)(=O)C1CC1)c1cc(C2CC2)c(OCC2CCN(Cc3ccc(Br)cc3Cl)CC2)cc1F [Example 414, 4-((1-(4-bromo-2-chlorobenzyl)piperidin-4-yl)methoxy)-5-cyclopropyl-N-(cyclopropylsulfonyl)-2-fluorobenzamide, trifluoroacetic acid salt] |
| 3.2 nM | CS(=O)(=O)NC(=O)c1cc(C2CC2)c(OCC2CCN(C(c3ccc(F)cc3)c3ccc(F)cc3)CC2)cc1F [Example 418, 4-((1-(bis(4-fluorophenyl)methyl)piperidin-4-yl)methoxy)-5-cyclopropyl-2-fluoro-N-(methylsulfonyl)benzamide, trifluoroacetic acid salt] |
| 5.2 nM | O=C(NS(=O)(=O)N1CCC1)c1cc(C2CC2)c(OCC2CCN(C(c3ccc(F)cc3)c3ccc(F)cc3)CC2)cc1F [Example 419, N-azetidin-1-ylsulfonyl)-4-((1-(bis(4-fluorophenyl)methyl)piperidin-4-yl)methoxy)-5-cyclopropyl-2-fluorobenzamide, trifluoroacetic acid salt] |
| 2.4 nM | CC1(COc2cc(F)c(C(=O)NS(C)(=O)=O)cc2C2CC2)CN(C(c2ccccc2)c2cc(Cl)cc(Cl)c2)C1 (centres unmarked) [Example 420, 5-cyclopropyl-4-((1-((3,5-dichlorophenyl)(phenyl)methyl)-3-methylazetidin-3-yl)methoxy)-2-fluoro-N-(methylsulfonyl)benzamide, trifluoroacetic acid salt] |
| 2.5 nM | CC1(COc2cc(F)c(C(=O)NS(=O)(=O)C3CC3)cc2C2CC2)CN(C(c2ccccc2)c2cc(Cl)cc(Cl)c2)C1 (centres unmarked) [Example 421, 5-cyclopropyl-N-(cyclopropylsulfonyl)-4-((1-((3,5-dichlorophenyl)(phenyl)methyl)-3-methylazetidin-3-yl)methoxy)-2-fluorobenzamide, trifluoroacetic acid salt] |
| 1.3 nM | CS(=O)(=O)NC(=O)c1cc(C2CC2)c(O[C@@H]2CCCN(Cc3cc(Cl)cc(OC(F)(F)F)c3)C2)cc1F [Example 422, (R)-4-((1-(3-chloro-5-(trifluoromethoxy)benzyl)piperidin-3-yl)oxy)-5-cyclopropyl-2-fluoro-N-(methylsulfonyl)benzamide, trifluoroacetic acid salt] |
| 2.1 nM | Cc1ccc(CN2CCC[C@@H](Oc3cc(F)c(C(=O)NS(C)(=O)=O)cc3C3CC3)C2)c(C)c1 [Example 423, (R)-5-cyclopropyl-4-((1-(2,4-dimethylbenzyl)piperidin-3-yl)oxy)-2-fluoro-N-(methylsulfonyl)benzamide, trifluoroacetic acid salt] |
| 2.5 nM | Cc1ccc(CN2CCC[C@@H](Oc3cc(F)c(C(=O)NS(C)(=O)=O)cc3C3CC3)C2)c(Cl)c1 [Example 424, (R)-4-((1-(2-chloro-4-methylbenzyl)piperidin-3-yl)oxy)-5-cyclopropyl-2-fluoro-N-(methylsulfonyl)benzamide, trifluoroacetic acid salt] |
| 2.9 nM | CC(C)(C)c1ccc(CN2CCC[C@@H](Oc3cc(F)c(C(=O)NS(C)(=O)=O)cc3C3CC3)C2)cc1 [Example 425, (R)-4-((1-(4-(tert-butyl)benzyl)piperidin-3-yl)oxy)-5-cyclopropyl-2-fluoro-N-(methylsulfonyl)benzamide, trifluoroacetic acid salt] |
| 3.1 nM | CS(=O)(=O)NC(=O)c1cc(C2CC2)c(O[C@@H]2CCCN(Cc3ccc(-c4ccccc4)cc3)C2)cc1F [Example 426, (R)-4-((1-([1,1′-biphenyl]-4-ylmethyl)piperidin-3-yl)oxy)-5-cyclopropyl-2-fluoro-N-(methylsulfonyl)benzamide, trifluoroacetic acid salt] |
| 3.2 nM | Cc1cc(F)ccc1CN1CCC[C@@H](Oc2cc(F)c(C(=O)NS(C)(=O)=O)cc2C2CC2)C1 [Example 431, (R)-5-cyclopropyl-2-fluoro-4-((1-(4-fluoro-2-methylbenzyl)piperidin-3-yl)oxy)-N-(methylsulfonyl)benzamide, trifluoroacetic acid salt] |
| 3.3 nM | COc1ccc(CN2CCC[C@@H](Oc3cc(F)c(C(=O)NS(C)(=O)=O)cc3C3CC3)C2)c(Cl)c1 [Example 432, (R)-4-((1-(2-chloro-4-methoxybenzyl)piperidin-3-yl)oxy)-5-cyclopropyl-2-fluoro-N-(methylsulfonyl)benzamide, trifluoroacetic acid salt] |
| 0.3 nM | CS(=O)(=O)NC(=O)c1cc(C2CC2)c(O[C@@H]2CCCN(Cc3cc(Cl)cc(Cl)c3)C2)cc1F [Example 440] |
